Patent publication US11565005B2, “Dota-hapten compositions for anti-dota/anti-tumor antigen bispecific antibody pretargeted radioimmunotherapy” (MEMORIAL SLOAN KETTERING CANCER CENTER, priority 2017, dated 2023)
Marks after values point to notes of the source that are not given here.

Legend:
[1] = tested on: GPA33-expressing SW1222 xenografts; test: Anti-GPA33-DOTA-PRIT + [^225Ac]Proteus-DOTA biodistribution; conditions: for Blood uptake / SW1222 tumor uptake: pretargeted with huA33-C825 + clearing agent
Experimental: Biodistribution Experiments. A treatment cycle of anti-GPA33 DOTA-PRIT consisted of three separate intravenous injections via the tail vein: 0.25 mg of huA33-C825 antibody (described in WO2016/130539) at t=−28 h, then […] of clearing agent (500 kD-dextran-DOTA-Bn(Y)) at t=−4 h, and [^225Ac]Proteus-DOTA at t=0. For ex vivo biodistribution analysis following the radiohaptens or anti-HER2-C825/[^225Ac]Proteus-DOTA, mice were euthanized by CO2(g) asphyxiation, and the tumors and selected organs were harvested, rinsed with water, air-dried, weighed, and radioassayed by gamma scintillation counting (Perkin Elmer Wallac Wizard 3″, Perkin Elmer, Waltham, Mass.). Count rates were background- and decay-corrected, converted to activities using a system calibration factor specific for the isotope, normalized to the administered activity, and expressed as average percent injected dose per gram (% ID/g)±1 standard deviation. Differences in radioactivity concentration in tumor and various tissues were analyzed by Student's unpaired t test when appropriate.
Biodistribution Studies Following In vivo Targeting with Anti-GPA33-DOTA-PRIT+[^225Ac]Proteus-DOTA. [^225Ac]Proteus-DOTA was prepared to a final specific activity of 0.20 Ci/g or 274 Ci/mol and injected into groups of animals within 24-48 hours of preparation. Animals that had received injections of huA33-C825 and clearing agent were injected with […] of [^225Ac]Proteus-DOTA that was prepared approximately 24 hours prior. The following day, animals were sacrificed for ex vivo biodistribution assessment at 24 hours post injection of [^225Ac]Proteus-DOTA in tumors and select normal tissues. A control group of non-tumor bearing animals were injected with […] of [^225Ac]Proteus-DOTA that was prepared approximately 48 hours prior, and were sacrificed 1 hour post injection of [^225Ac]Proteus-DOTA for ex vivo biodistribution assessment in normal tissues. Carcass radioactivity was not collected during this study.
A control group of healthy nude mice were injected with [^225Ac]Proteus-DOTA only (198 pmol, 1.85 kBq [50 nCi]) to evaluate normal tissue uptake of the [^225Ac]Proteus-DOTA preparation.
These mice were sacrificed 24 h p.i. of [^225Ac]Proteus-DOTA for biodistribution assay. All animals were sacrificed at 24 h p.i. for biodistribution.

[2] = Biodistribution of [^225Ac]Proteus-DOTA alone in tumor-free nude mice; format: in vivo; conditions: hapten alone, 1 h p.i.
From the text: Carcass radioactivity was not collected during this study.

[3] = 24 h p.i., n = 3, listed as [^225Ac] Proteus-DOTA
[4] = n = 3, listed as [^225Ac] Proteus-DOTA

## O=C([O-])CN1CCN(CC(=O)[O-])CCN(CC(=O)NCCOCCOCCOCCOCCNC(=S)Nc2ccc(CC3CN(CC(=O)[O-])CCN(CC(=O)[O-])CCN(CC(=O)[O-])CCN3CC(=O)[O-])cc2)CCN(CC(=O)[O-])CC1.[225Ac+3].[Lu+3] (stereo not drawn) [[^225Ac]Proteus-DOTA]
[1]; 24 h p.i., n = 3
  Blood uptake: 0.94±0.26 % ID/g
  SW1222 tumor uptake: 16.71±2.95 % ID/g
[1]; [3]
  Blood uptake: 0.94 ± 0.26^a % ID/g
  SW1222 tumor uptake: 16.71 ± 2.95 % ID/g
[1]; pretargeted, 24 h p.i.
  Bone uptake: undetectable
  Tumor-to-tissue ratio, Blood: 17.9 ± 4.0
  Tumor-to-tissue ratio, Heart: 60.4 ± 35.8
  Tumor-to-tissue ratio, Kidneys: 15.5 ± 4.8
  Tumor-to-tissue ratio, Large Intestine: 147.5 ± 90.9
  Tumor-to-tissue ratio, Liver: 11.9 ± 4.2
  Tumor-to-tissue ratio, Lungs: 24.0 ± 13.5
  Tumor-to-tissue ratio, Muscle: 128.6 ± 129.2
  Tumor-to-tissue ratio, Small Intestine: 102.3 ± 67.1
  Tumor-to-tissue ratio, Spleen: 31.1 ± 31.3
  Tumor-to-tissue ratio, Stomach: 238.8 ± 150.7
  blood uptake (percent injected activity per gram of tissue): 0.94±0.26 % IA/g
  kidney uptake (percent injected activity per gram of tissue): 1.08±0.55 % IA/g
  liver uptake (percent injected activity per gram of tissue): 1.40±0.47 % IA/g
[1]; pretargeted, 24 h p.i., n = 3
  Bone uptake: 0.00 ± 0.00 % ID/g
  Heart uptake: 0.28 ± 0.28 % ID/g
  Kidneys uptake: 1.08±0.55 % ID/g
  Large Intestine uptake: 0.11 ± 0.12 % ID/g
  Liver uptake: 1.40 ± 0.82 % ID/g
  Lungs uptake: 0.70 ± 0.67 % ID/g
  Muscle uptake: 0.13 ± 0.23 % ID/g
  Small Intestine uptake: 0.16 ± 0.18 % ID/g
  Spleen uptake: 0.54 ± 0.93 % ID/g
  Stomach uptake: 0.07 ± 0.08 % ID/g
[1]; pretargeted, 24 h p.i., n = 3, listed as [^225Ac] Proteus-DOTA
  Kidneys uptake: 1.08 ± 0.55 % ID/g
[1]; pretargeted, SW1222, 24 h p.i.
  tumor uptake (percent injected activity per gram of tissue): 16.71±2.95 % IA/g
[2]; n = 3
  Blood uptake: 0.31±0.54 % ID/g
  Bone uptake: 0.45 ± 0.79 % ID/g
  Kidneys uptake: 0.63±0.41 % ID/g
  Large Intestine uptake: 0.02 ± 0.02 % ID/g
  Liver uptake: 0.04±0.06 % ID/g
  Muscle uptake: 0.98 ± 0.91 % ID/g
  Small Intestine uptake: 0.16 ± 0.26 % ID/g
  Spleen uptake: 0.04 ± 0.06 % ID/g
  Stomach uptake: 0.24 ± 0.38 % ID/g
[2]; [4]
  Blood uptake: 0.31 ± 0.54 % ID/g
  Kidneys uptake: 0.63 ± 0.41 % ID/g
  Liver uptake: 0.01 ± 0.02 % ID/g
